Where two headings read alike, the source gives them in different places.
Legend:
[1] = humans, previously determined; cited from earlier work
[2] = human volunteers, cited from earlier work
[3] = Maximal tolerated dose in humans; format: in vivo, human; details: oral
[4] = in vivo
Source text: Inecalcitol is a synthetic derivative of calcitriol, the natural active metabolite of vitamin D3.

[5] = in vivo; cited from earlier work
[6] = in vivo; cited from earlier work; remark: listed apart in the source
[7] = rats; cited from earlier work
[8] = cynomolgus monkey, in vivo, po
Procedure: Male cynomolgus monkey received a single oral administration of a high dose of inecalcitol (2 mg/kg) in the same volume (5 ml/kg) for each excipient. Blood samples were drawn at the time of administration (To) and 15, 30, 45, 60, 90 minutes, 3, 6, 9 and 24 hours later. Plasma aliquots were prepared on heparinized tubes and unchanged inecalcitol was specifically assayed by HPLC/MS/MS method.

C=C1/C(=C\C=C2/CCC[C@]3(C)[C@@H]([C@H](C)CCCC(C)(C)O)CC[C@@H]23)C[C@@H](O)C[C@@H]1O [calcitriol, 1,25-dihydroxy-cholecalciferol]
maximal tolerated dose [1]: 45 μg once a week

C=C1CC[C@H](O)C/C1=C/C=C1\CCC[C@]2(C)[C@@H]([C@H](C)CCCC(C)C)CC[C@@H]12 [cholecalciferol]
bioavailability from arachis oil capsules versus MCT capsules ([2]; fasting state): about twice higher | bioavailability from arachis oil capsules versus MCT capsules ([2]; given with a standard meal): no difference was observed

C[C@H](CC#CC(C)(C)O)[C@H]1CC[C@@H]2/C(=C/C=C3C[C@@H](O)C[C@H](O)C3)CCC[C@@]21C [inecalcitol, 19-nor-9,10-seco-14βH-cholesta-5(Z),7(E)-dien-23-ino-1α,3β,25-triol-23-yne]
maximal tolerated dose [3]: 4 mg per day | calcemic activity [4]: very low calcemic activity | calcemic effects compared with calcitriol [5]: markedly lower calcemic effects

C=C1/C(=C\C=C2/CCC[C@]3(C)[C@@H]([C@H](C)/C=C/C=C/C(O)(CC)CC)CC[C@@H]23)C[C@@H](O)C[C@@H]1O [seocalcitol]
bioavailability of complex system versus simple solutions in MCT or LCT [6]: without any improvement in bioavailability | bioavailability, LCT- versus MCT-based formulations [7]: no difference was observed

Sunflower oil
absorption of inecalcitol compared with MCT (in words) [8]: better absorbed | AUC0-24 h (%) ([8]; 2 mg/kg): 132% | Cmax (−fold) ([8]; 2 mg/kg): 3.0 fold | Tmax ([8]; 2 mg/kg): 1.5 h

elocalcitol
maximal tolerated dose [1]: 150 μg per day
